The text below walks through data of US20100076047A1, “Amorphous 1-(9H-carbazol-4-yloxy)-3-[[2-(2-methoxyphenoxy)ethyl]amino]-2-propanol phosphate salt” (priority 2007, published 2010).

A short description of data set [1]: storage stability of the solid amorphous form (XRD). Format: physicochemical. The text has this: Solid amorphous Carvedilol dihydrogen phosphate is provided herein.
Data set [2] is described as follows: moisture uptake on exposure to air. It counts as physicochemical.

Structures can show the parent of a compound that is named as a salt.

In the case of `COc1ccccc1OCCNCC(O)COc1cccc2[nH]c3ccccc3c12` (stereo not shown) [1-(9H-carbazol-4-yloxy)-3-[[2-(2-methoxyphenoxy)ethyl]amino]-2-propanol phosphate salt], the stability on storage result in data set [1] (stored under controlled humidity conditions, no conversion to a crystalline form) is on record as “stable”. Besides, the “stability profile compared to the existing crystalline forms” value in data set [1] (versus existing crystalline forms) is given as “superior stability profile”. The “XRD pattern after moisture uptake” value in data set [2] (after picking up moisture up to 7%) was “remains identical”. Besides, in data set [2] (material of low moisture content exposed to air, forming higher hydrates), the “moisture picked up when exposed to air” value is on record as “up to 7%”.
